According to PubChem BioAssay AID1963834 (Molecular Pharmacology Branch, DTP, NCI, 2024):

Tested on: 873145-292-R-J1-PDC complex spheroid viability
Assay: Anticancer human tumor 873145-292-R-J1-PDC patient-derived renal clear cell carcinoma cell line growth inhibition [POLQ]
Conditions: for IC50: curve of first compound; for viability, T/C: stronger effect = lower value
Outline: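 Three-cell-type spheroids modelling solid tumor plus stroma served as the readout system; POL inhibitors were tested individually and in combination, concentration ranges set by clinical Cmax where known.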

[1] = second compound 0.0316 µM, first compound 0.00316 µM
[2] = second compound 0.0316 µM, first compound 0.01 µM
[3] = second compound 0.0316 µM, first compound 0.0316 µM
[4] = second compound 0.0316 µM, first compound 0.1 µM
[5] = second compound 0.0316 µM, first compound 0.316 µM
[6] = second compound 0.0316 µM, first compound 1 µM
[7] = second compound 0.1 µM, first compound 0.00316 µM
[8] = second compound 0.1 µM, first compound 0.01 µM
[9] = second compound 0.1 µM, first compound 0.0316 µM
[10] = second compound 0.1 µM, first compound 0.1 µM
[11] = second compound 0.1 µM, first compound 0.316 µM
[12] = second compound 0.1 µM, first compound 1 µM
[13] = second compound 0.316 µM, first compound 0.00316 µM
[14] = second compound 0.316 µM, first compound 0.01 µM
[15] = second compound 0.316 µM, first compound 0.0316 µM
[16] = second compound 0.316 µM, first compound 0.1 µM
[17] = second compound 0.316 µM, first compound 0.316 µM
[18] = second compound 0.316 µM, first compound 1 µM
[19] = second compound 1 µM, first compound 0.00316 µM
[20] = second compound 1 µM, first compound 0.01 µM
[21] = second compound 1 µM, first compound 0.0316 µM
[22] = second compound 1 µM, first compound 0.1 µM
[23] = second compound 1 µM, first compound 0.316 µM
[24] = second compound 1 µM, first compound 1 µM
[25] = second compound 3.16 µM, first compound 0.00316 µM
[26] = second compound 3.16 µM, first compound 0.01 µM
[27] = second compound 3.16 µM, first compound 0.0316 µM
[28] = second compound 3.16 µM, first compound 0.1 µM
[29] = second compound 3.16 µM, first compound 0.316 µM
[30] = second compound 3.16 µM, first compound 1 µM
[31] = second compound 10 µM, first compound 0.00316 µM
[32] = second compound 10 µM, first compound 0.01 µM
[33] = second compound 10 µM, first compound 0.0316 µM
[34] = second compound 10 µM, first compound 0.1 µM
[35] = second compound 10 µM, first compound 0.316 µM
[36] = second compound 10 µM, first compound 1 µM
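Also: spheroids exposed to compounds for 7 days before viability readout.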
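For viability, T/C in this document: luminescence signal used as surrogate for viable cell content; 100% = DMSO vehicle control viability.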

## C=CCn1c(=O)c2cnc(Nc3ccc(N4CCN(C)CC4)cc3)nc2n1-c1cccc(C(C)(C)O)n1 + Cc1cccc(N(C)C(=O)C2C(O)CCN2c2nc(C)cc(C(F)(F)F)c2C#N)c1
Second compound 0.0316 µM
  IC50: > 1000 nM
Second compound 0.1 µM
  IC50: > 1000 nM
Second compound 0.316 µM
  IC50: > 1000 nM
Second compound 1 µM
  IC50: > 1000 nM
Second compound 3.16 µM
  IC50: > 1000 nM
Second compound 10 µM
  IC50: > 1000 nM
[1]
  viability, T/C: 93.1%
[2]
  viability, T/C: 104%
[3]
  viability, T/C: 102%
[4]
  viability, T/C: 92%
[5]
  viability, T/C: 83.3%
[6]
  viability, T/C: 77.8%
[7]
  viability, T/C: 101%
[8]
  viability, T/C: 97.3%
[9]
  viability, T/C: 96%
[10]
  viability, T/C: 87.1%
[11]
  viability, T/C: 88.3%
[12]
  viability, T/C: 76.7%
[13]
  viability, T/C: 101%
[14]
  viability, T/C: 110%
[15]
  viability, T/C: 82.8%
[16]
  viability, T/C: 94.6%
[17]
  viability, T/C: 81.4%
[18]
  viability, T/C: 74.9%
[19]
  viability, T/C: 89.8%
[20]
  viability, T/C: 94.4%
[21]
  viability, T/C: 101%
[22]
  viability, T/C: 85.8%
[23]
  viability, T/C: 87.5%
[24]
  viability, T/C: 75.5%
[25]
  viability, T/C: 97.7%
[26]
  viability, T/C: 120%
[27]
  viability, T/C: 112%
[28]
  viability, T/C: 91.3%
[29]
  viability, T/C: 86.9%
[30]
  viability, T/C: 81.7%
[31]
  viability, T/C: 93.2%
[32]
  viability, T/C: 97.2%
[33]
  viability, T/C: 102%
[34]
  viability, T/C: 85.1%
[35]
  viability, T/C: 81.4%
[36]
  viability, T/C: 75.3%

## CC[C@@]1(O)C(=O)OCc2c1cc1n(c2=O)Cc2cc3c(CN(C)C)c(O)ccc3nc2-1 + Cc1cccc(N(C)C(=O)C2C(O)CCN2c2nc(C)cc(C(F)(F)F)c2C#N)c1
Second compound 0.0316 µM
  IC50: > 100 nM
Second compound 0.1 µM
  IC50: > 100 nM
Second compound 0.316 µM
  IC50: 92.2 nM
Second compound 1 µM
  IC50: > 100 nM
Second compound 3.16 µM
  IC50: > 100 nM
Second compound 10 µM
  IC50: > 100 nM
Second compound 0.0316 µM, first compound 0.000316 µM
  viability, T/C: 105%
Second compound 0.0316 µM, first compound 0.001 µM
  viability, T/C: 95.2%
[1]
  viability, T/C: 89.6%
[2]
  viability, T/C: 104%
[3]
  viability, T/C: 73.7%
[4]
  viability, T/C: 52.5%
Second compound 0.1 µM, first compound 0.000316 µM
  viability, T/C: 93.3%
Second compound 0.1 µM, first compound 0.001 µM
  viability, T/C: 101%
[7]
  viability, T/C: 97.8%
[8]
  viability, T/C: 101%
[9]
  viability, T/C: 74.4%
[10]
  viability, T/C: 52.2%
Second compound 0.316 µM, first compound 0.000316 µM
  viability, T/C: 94.9%
Second compound 0.316 µM, first compound 0.001 µM
  viability, T/C: 113%
[13]
  viability, T/C: 96.8%
[14]
  viability, T/C: 97.3%
[15]
  viability, T/C: 78.7%
[16]
  viability, T/C: 47.8%
Second compound 1 µM, first compound 0.000316 µM
  viability, T/C: 101%
Second compound 1 µM, first compound 0.001 µM
  viability, T/C: 98.9%
[19]
  viability, T/C: 87.9%
[20]
  viability, T/C: 104%
[21]
  viability, T/C: 75%
[22]
  viability, T/C: 59.2%
Second compound 3.16 µM, first compound 0.000316 µM
  viability, T/C: 89.6%
Second compound 3.16 µM, first compound 0.001 µM
  viability, T/C: 91.5%
[25]
  viability, T/C: 92.8%
[26]
  viability, T/C: 97.8%
[27]
  viability, T/C: 78%
[28]
  viability, T/C: 63.9%
Second compound 10 µM, first compound 0.000316 µM
  viability, T/C: 93.4%
Second compound 10 µM, first compound 0.001 µM
  viability, T/C: 95.2%
[31]
  viability, T/C: 94.5%
[32]
  viability, T/C: 98.8%
[33]
  viability, T/C: 81.8%
[34]
  viability, T/C: 54.5%

## CCc1c2c(nc3ccc(O)cc13)-c1cc3c(c(=O)n1C2)COC(=O)[C@]3(O)CC + Cc1cccc(N(C)C(=O)C2C(O)CCN2c2nc(C)cc(C(F)(F)F)c2C#N)c1
Second compound 0.0316 µM
  IC50: 76.2 nM
Second compound 0.1 µM
  IC50: 71.7 nM
Second compound 0.316 µM
  IC50: 68.6 nM
Second compound 1 µM
  IC50: 64.9 nM
Second compound 3.16 µM
  IC50: 35.5 nM
Second compound 10 µM
  IC50: 74.4 nM
[1]
  viability, T/C: 98.7%
[2]
  viability, T/C: 80.6%
[3]
  viability, T/C: 57.2%
[4]
  viability, T/C: 46.8%
[5]
  viability, T/C: 40%
[6]
  viability, T/C: 28.6%
[7]
  viability, T/C: 103%
[8]
  viability, T/C: 81.6%
[9]
  viability, T/C: 54.2%
[10]
  viability, T/C: 46.7%
[11]
  viability, T/C: 41.9%
[12]
  viability, T/C: 28.2%
[13]
  viability, T/C: 107%
[14]
  viability, T/C: 91.9%
[15]
  viability, T/C: 57.9%
[16]
  viability, T/C: 45.3%
[17]
  viability, T/C: 39.4%
[18]
  viability, T/C: 26.1%
[19]
  viability, T/C: 97.2%
[20]
  viability, T/C: 79.8%
[21]
  viability, T/C: 64.2%
[22]
  viability, T/C: 39.2%
[23]
  viability, T/C: 37.9%
[24]
  viability, T/C: 29.4%
[25]
  viability, T/C: 95%
[26]
  viability, T/C: 69.8%
[27]
  viability, T/C: 54.1%
[28]
  viability, T/C: 36.9%
[29]
  viability, T/C: 33.7%
[30]
  viability, T/C: 33.2%
[31]
  viability, T/C: 87.8%
[32]
  viability, T/C: 65.6%
[33]
  viability, T/C: 56.4%
[34]
  viability, T/C: 47.5%
[35]
  viability, T/C: 47.6%
[36]
  viability, T/C: 31.7%
